Data taken from EP0183129A1, “Quinolonecarboxylic acid derivatives” (KYORIN PHARMACEUTICAL CO., LTD., priority 1984, dated 1986).
Where a name gives a salt, the structure may show the parent alone. Read-outs that look alike come from different tables or passages of the source.

What was measured:
S. agalactiae 4470 = experiment: In vitro antibacterial activity, MIC (clinical isolates); format: cell-based; conditions: Streptococcus agalactiae; S. agalactiae 4470; 10^6 cells/ml; clinical isolate; read-out: MIC
[1] = tested on: Escherichia coli NIHJ JC-2; experiment: In vitro antibacterial activity, MIC (standard strain); format: cell-based; conditions: Escherichia coli, NIHJJC2, Escherichia coli NIHJ JC-2; 10^6 cells/ml; standard strain; read-out: MIC
B. fragilis 0558 = experiment: as above; format: cell-based, Bacteroides fragilis; conditions: Bacteroides fragilis, 0558, B. fragilis 0558; 10^6 cells/ml; standard strain; read-out: MIC
P. aeruginosa IID 1210 = experiment: as above; format: cell-based; conditions: Pseudomonas aeruginosa, IID1210; P. aeruginosa IID 1210; 10^6 cells/ml; standard strain; read-out: MIC
S. faecalis 402 = experiment: In vitro antibacterial activity, MIC (clinical isolates); format: cell-based; conditions: Enterococcus faecalis; S. faecalis 402; 10^6 cells/ml; clinical isolate; read-out: MIC
[2] = tested on: Salmonella entritidis IID 604; experiment: In vitro antibacterial activity, MIC (standard strain); format: cell-based; conditions: IID604; Salmonella entritidis IID 604; 10^6 cells/ml; standard strain; read-out: MIC
S. agalactiae 4468 = experiment: In vitro antibacterial activity, MIC (clinical isolates); format: cell-based; conditions: Streptococcus agalactiae; S. agalactiae 4468; 10^6 cells/ml; clinical isolate; read-out: MIC
S. agalactiae 4368 = experiment: as above; format: cell-based; conditions: Streptococcus agalactiae; S. agalactiae 4368; 10^6 cells/ml; clinical isolate; read-out: MIC
S. pneumoniae IID 552 = experiment: In vitro antibacterial activity, MIC (standard strain); format: cell-based; conditions: Streptococcus pneumoniae, IID552; S. pneumoniae IID 552; 10^6 cells/ml; standard strain; read-out: MIC
S. agalactiae 4049 = experiment: In vitro antibacterial activity, MIC (clinical isolates); format: cell-based; conditions: Streptococcus agalactiae; S. agalactiae 4049; 10^6 cells/ml; clinical isolate; read-out: MIC
S. pyogenes 3102 = experiment: as above; format: cell-based; conditions: Streptococcus pyogenes; S. pyogenes 3102; 10^6 cells/ml; clinical isolate; read-out: MIC
[3] = tested on: Streptococcus pyogenes S-8; experiment: In vitro antibacterial activity, MIC (standard strain); format: cell-based; conditions: S8; Streptococcus pyogenes S-8; 10^6 cells/ml; standard strain; read-out: MIC
[4] = tested on: Clostridium perfringens KYA 13123; experiment: microbe, parasite or virus in culture; format: cell-based; conditions: KYA13123
S. pyogenes 3107 = experiment: In vitro antibacterial activity, MIC (clinical isolates); format: cell-based; conditions: Streptococcus pyogenes; S. pyogenes 3107; 10^6 cells/ml; clinical isolate; read-out: MIC
[5] = tested on: Enterobacter cloacae IID 977; experiment: In vitro antibacterial activity, MIC (standard strain); format: cell-based; conditions: Enterobacter cloacae, IID977, Enterobacter cloacae IID 977; 10^6 cells/ml; standard strain; read-out: MIC
S. faecalis 49 = experiment: In vitro antibacterial activity, MIC (clinical isolates); format: cell-based; conditions: Enterococcus faecalis; S. faecalis 49; 10^6 cells/ml; clinical isolate; read-out: MIC
C. ramosum = experiment: In vitro antibacterial activity, MIC (standard strain); format: cell-based; conditions: Thomasclavelia ramosa; C. ramosum; 10^6 cells/ml; standard strain; read-out: MIC
S. pyogenes 3130 = experiment: In vitro antibacterial activity, MIC (clinical isolates); format: cell-based; conditions: Streptococcus pyogenes, read-out: MIC
E. coli ATCC 10536 = experiment: In vitro antibacterial activity, MIC (standard strain); format: cell-based; conditions: Escherichia coli, ATCC10536; E. coli ATCC 10536; 10^6 cells/ml; standard strain; read-out: MIC
S. pneumoniae 15 = experiment: In vitro antibacterial activity, MIC (clinical isolates); format: cell-based; conditions: Streptococcus pneumoniae; S. pneumoniae 15; 10^6 cells/ml; clinical isolate; read-out: MIC
S. faecalis 214 = experiment: as above; format: cell-based; conditions: Enterococcus faecalis; S. faecalis 214; 10^6 cells/ml; clinical isolate; read-out: MIC
S. aureus Smith = experiment: In vitro antibacterial activity, MIC (standard strain); format: cell-based, Staphylococcus aureus
[6] = tested on: Fusobacterium varium KYA 8501; experiment: as above; format: cell-based; conditions: Fusobacterium varium, KYA8501, Fusobacterium varium KYA 8501; 10^6 cells/ml; standard strain; read-out: MIC
[7] = tested on: Proteus vulgaris IFO 3167; experiment: as above; format: cell-based; conditions: IFO3167; Proteus vulgaris IFO 3167; 10^6 cells/ml; standard strain; read-out: MIC
[8] = tested on: Morganella morganii IID 602; experiment: as above; format: cell-based; conditions: IID602; Morganella morganii IID 602; 10^6 cells/ml; standard strain; read-out: MIC
[9] = tested on: Klebsiella pneumoniae KY(GN)6445; experiment: as above; format: cell-based; conditions: Klebsiella pneumoniae KY(GN)6445; 10^6 cells/ml; standard strain; read-out: MIC
P. aeruginosa IFO 12689 = experiment: as above; format: cell-based, Pseudomonas aeruginosa; conditions: Pseudomonas aeruginosa, IFO12689; P. aeruginosa IFO 12689; 10^6 cells/ml; standard strain; read-out: MIC
[10] = tested on: Serratia marcescens IID 618; experiment: as above; format: cell-based; conditions: Serratia marcescens, IID618, Serratia marcescens IID 618; 10^6 cells/ml; standard strain; read-out: MIC
S. marcescens GN 7577 = experiment: as above; format: cell-based; conditions: Serratia marcescens, GN7577; S. marcescens GN 7577; 10^6 cells/ml; standard strain; read-out: MIC
E. coli ML 4707 = experiment: as above; format: cell-based; conditions: Escherichia coli, ML4707; E. coli ML 4707; 10^6 cells/ml; standard strain; read-out: MIC
[11] = tested on: Acinetobacter anitratus IID 876; experiment: as above; format: cell-based; conditions: Acinetobacter calcoaceticus, IID876, Acinetobacter anitratus IID 876; 10^6 cells/ml; standard strain; read-out: MIC
[12] = MIC column of Table 3-1, beside ED50 against S. aureus Smith
[13] = Staphylococcus aureus, S. aureus Smith, 10^6 cells/ml, standard strain, read-out: MIC

| SMILES | MIC [1] [µg/mL] | MIC (B. fragilis 0558) [µg/mL] | MIC (P. aeruginosa IID 1210) [µg/mL] | MIC (S. faecalis 402) [µg/mL] | MIC [2] [µg/mL] | MIC (S. agalactiae 4468) [µg/mL] | MIC (S. agalactiae 4368) [µg/mL] | MIC (S. pneumoniae IID 552) [µg/mL] | MIC (S. agalactiae 4049) [µg/mL] | MIC (S. pyogenes 3102) [µg/mL] | MIC [3] [µg/mL] | MIC [4] [µg/mL] | MIC (S. pyogenes 3107) [µg/mL] | MIC [5] [µg/mL] | MIC (S. faecalis 49) [µg/mL] | MIC (C. ramosum) [µg/mL] | MIC (S. pyogenes 3130) [µg/mL] | MIC (E. coli ATCC 10536) [µg/mL] | MIC (S. pneumoniae 15) [µg/mL] | MIC (S. faecalis 214) [µg/mL] | also measured |
| --- | --- | --- | --- | --- | --- | --- | --- | --- | --- | --- | --- | --- | --- | --- | --- | --- | --- | --- | --- | --- | --- |
| NCC1CCN(c2c(F)cc3c(=O)c(C(=O)O)cn(C4CC4)c3c2F)C1 (stereo not drawn) [Example 1, 7-(3-Aminomethyl-l-pyrrolidinyl)-l-cyclopropyl-6,8-difluoro-1,4-dihydro-4-oxo-3-quinolinecarboxylic acid hydrochloride] | 0.025 | 0.39 | 0.78 | 0.1 | 0.05 | 0.05 | 0.05 | 0.05 | 0.05 | 0.05 | 0.05 | 0.39 | 0.05 | 0.1 | 0.1 | 0.78 | 0.05 | 0.025 | 0.05 | 0.1 | MIC (S. agalactiae 4470): 0.05 µg/mL; MIC (S. aureus Smith; [12]): 0.05 µg/mL; MIC (S. aureus Smith; [13]): 0.05 µg/mL; MIC [6]: 0.78 µg/mL; MIC [7]: 0.025 µg/mL; MIC [8]: 0.1 µg/mL; MIC [9]: 0.05 µg/mL; MIC (P. aeruginosa IFO 12689): 0.39 µg/mL; MIC [10]: 0.2 µg/mL; MIC (S. marcescens GN 7577): 0.78 µg/mL; MIC (E. coli ML 4707): 0.025 µg/mL; MIC [11]: 0.1 µg/mL |
| CCNCC1CCN(c2c(F)cc3c(=O)c(C(=O)O)cn(C4CC4)c3c2F)C1 (stereo not drawn) [Example 2, l-Cyclopropyl-7-(3-ethylaminomethyl-l-pyrrolidinyl)-6,8-difluoro-l,4-dihydro-4-oxo-3-quinolinecarboxylic acid hydrochloride] | 0.025 | 0.78 | 3.13 | 0.2 | 0.05 | 0.1 | 0.1 | 0.1 | 0.1 | 0.05 | 0.1 | 0.39 | 0.05 | 0.1 | 0.2 | 0.78 | 0.05 | 0.025 | 0.05 | 0.2 | MIC (S. agalactiae 4470): 0.1 µg/mL; MIC (S. aureus Smith; [12]): 0.025 µg/mL; MIC (S. aureus Smith; [13]): 0.025 µg/mL; MIC [6]: 1.56 µg/mL; MIC [7]: 0.025 µg/mL; MIC [8]: 0.1 µg/mL; MIC [9]: 0.05 µg/mL; MIC (P. aeruginosa IFO 12689): 1.56 µg/mL; MIC [10]: 0.1 µg/mL; MIC (S. marcescens GN 7577): 1.56 µg/mL; MIC (E. coli ML 4707): 0.025 µg/mL; MIC [11]: 0.05 µg/mL |
| CCNCC1CCN(c2cc3c(cc2F)c(=O)c(C(=O)O)cn3C2CC2)C1.Cl (stereo not drawn) [Example 7, 1-Cyclopropyl-7-(3-ethylaminomethyl-1-pyrrolidinyl)-6-fluoro-1,4-dihydro-4-oxo-3-quinolinecarboxylic acid hydrochloride] | 0.05 | 25 | 3.13 | 0.78 | 0.2 | 0.39 | 0.39 | 0.39 | 0.78 | 0.2 | 0.39 | 0.2 | 0.2 | 0.39 | 0.78 | 6.25 | 0.2 | 0.05 | 0.39 | 0.78 | MIC (S. agalactiae 4470): 0.39 µg/mL; MIC (S. aureus Smith; [13]): 0.1 µg/mL; MIC [6]: 12.5 µg/mL; MIC [7]: 0.05 µg/mL; MIC [8]: 0.39 µg/mL; MIC [9]: 0.1 µg/mL; MIC (P. aeruginosa IFO 12689): 3.13 µg/mL; MIC [10]: 0.39 µg/mL; MIC (S. marcescens GN 7577): 6.25 µg/mL; MIC (E. coli ML 4707): 0.05 µg/mL; MIC [11]: 0.78 µg/mL |
| CNCC1CCN(c2c(F)cc3c(=O)c(C(=O)O)cn(C4CC4)c3c2F)C1 (stereo not drawn) [Example 8, 1-Cyclopropyl-6,8-difluoro-1,4-dihydro-7-(3-methylaminomethyl-l-pyrrolidinyl)-4-oxo-3-quinolinecarboxylic acid hydrochloride] | 0.025 | 0.39 | 1.56 | 0.2 | 0.05 | 0.1 | 0.1 | 0.05 | 0.2 | 0.05 | 0.05 | 0.39 | 0.05 | 0.1 | 0.1 | 0.78 | 0.05 | 0.025 | 0.05 | 0.05 | MIC (S. aureus Smith; [13]): 0.025 µg/mL; MIC [6]: 0.78 µg/mL; MIC [7]: 0.025 µg/mL; MIC [8]: 0.2 µg/mL; MIC [9]: 0.025 µg/mL; MIC (P. aeruginosa IFO 12689): 1.56 µg/mL; MIC [10]: 0.2 µg/mL; MIC (S. marcescens GN 7577): 1.56 µg/mL; MIC (E. coli ML 4707): 0.025 µg/mL; MIC [11]: 0.1 µg/mL |
| CNCC1CCN(c2cc3c(cc2F)c(=O)c(C(=O)O)cn3C2CC2)C1 (stereo not drawn) [Example 9, 1-Cyclopropyl-6-fluoro-1,4-dihydro-7-(3-methylaminomethyl-l-pyrrolidinyl)-4-oxo-3-quinolinecarboxylic acid hydrochloride] | 0.05 | 12.5 | 3.13 | 0.78 | 0.2 | 0.39 | 0.2 | 0.39 | 0.78 | 0.1 | 0.2 | 1.56 | 0.1 | 0.39 | 0.39 | 12.5 | 0.1 | 0.1 | 0.39 | 0.39 | MIC (S. agalactiae 4470): 0.39 µg/mL; MIC (S. aureus Smith; [13]): 0.39 µg/mL; MIC [6]: 25 µg/mL; MIC [7]: 0.1 µg/mL; MIC [8]: 0.78 µg/mL; MIC [9]: 0.1 µg/mL; MIC (P. aeruginosa IFO 12689): 3.13 µg/mL; MIC [10]: 0.39 µg/mL; MIC (S. marcescens GN 7577): 6.25 µg/mL; MIC (E. coli ML 4707): 0.1 µg/mL; MIC [11]: 0.78 µg/mL |
